Assay results published in patent US20050004111A1, “Selective MMP-13 inhibitors” (AVENTIS PHARMA DEUTSCHLAND GMBH, priority 2003, published 2005).

What was measured:
[1] = target: T1, catalytic domain of human collagenase 3 (MMP-13) (Homo sapiens, UniProt P45452); test: Enzyme activity of the catalytic domain of human collagenase 3 (MMP-13), fluorogenic substrate; format: biochemical; conditions: determined graphically from % inhibition, read-out: IC50 MMP13
T1 construct: Determining the enzyme activity of the catalytic domain of human collagenase 3 (MMP-13); purchased INVITEK, Berlin 30 100 803
Method: Determining the enzyme activity of the catalytic domain of human collagenase 3 (MMP-13).
Activating the proenzyme:
2 parts by volume of proenzyme are incubated with 1 part by volume of APMA solution at 37° C. for 1.5 hours. The APMA solution is prepared from a 10 mmol/l solution of p-aminophenylmercuric acetate in […] by diluting with 3 parts by volume of tris/HCl buffer, pH 7.5 (see below). The pH is adjusted to between 7.0 and 7.5 by adding 1 mmol/I HCl. After the enzyme has been activated, it is diluted to a concentration of 1.67 μg/ml using the tris/HCl buffer.
In order to measure the enzyme activity, 10 μl of enzyme solution are incubated for 15 minutes with 10 μl of a 3% (v/v) buffered solution of dimethyl sulfoxide (reaction 1). In order to measure the enzyme inhibitor activity, 10 μl of enzyme solution are incubated with 10 μl of a 3% (v/v) buffered solution of dimethyl sulfoxide containing the enzyme inhibitor (reaction 2).
In the case of both reaction 1 and reaction 2, the enzyme reaction is monitored by fluorescence spectroscopy (328 nm (extinction)/393 nm (emission)) after adding 10 μl of a 3% (v/v) aqueous solution of dimethyl sulfoxide containing 0.75 mmol of the substrate/l.
The enzyme activity is depicted as increase in extinction/minute.
The effect of the inhibitor is calculated as a percentage inhibition using the following formula: % inhibition=100−[(increase in extinction/minute in reaction 2)/(increase in extinction/minute in reaction 1)×100].
The IC50, i.e., the inhibitor concentration that is required for inhibiting the enzyme activity by 50%, is determined graphically by plotting the percentage inhibitions at different inhibitor concentrations.
The buffer solution contains 0.05% Brij (Sigma, Deisenhofen, Germany) and 0.1 mol of tris/HCl/l, 0.1 mol of NaCl/l and 0.01 mol of CaCl2/l (pH=7.5). The enzyme solution contains 1.67 μg of the enzyme domain/ml. The substrate solution contains 0.75 mmol/l of the fluorogenic substrate (7-methoxycoumarin4-yl)acetyl-Pro-Leu-Gly-Leu-3-(2′,4′-dinitrophenyl)-L-2,3-diaminopropionyl-Ala-Arg-NH2 (Bachem, Heidelberg, Germany).

[2] = target: T2, prolyl 4-hydroxylase (Gallus gallus, UniProt P16924); test: Prolyl hydroxylase inhibition (method of Majamaa, version of Kaule and Guenzler); format: biochemical; conditions: enzyme from 14-day-old chick embryos; concentrations of from 0.1 μM to 1 mM
T2 construct: from tissue; host or cells: 14-day-old chick embryos (homogenate)
T2 sequence (P16924 1-516): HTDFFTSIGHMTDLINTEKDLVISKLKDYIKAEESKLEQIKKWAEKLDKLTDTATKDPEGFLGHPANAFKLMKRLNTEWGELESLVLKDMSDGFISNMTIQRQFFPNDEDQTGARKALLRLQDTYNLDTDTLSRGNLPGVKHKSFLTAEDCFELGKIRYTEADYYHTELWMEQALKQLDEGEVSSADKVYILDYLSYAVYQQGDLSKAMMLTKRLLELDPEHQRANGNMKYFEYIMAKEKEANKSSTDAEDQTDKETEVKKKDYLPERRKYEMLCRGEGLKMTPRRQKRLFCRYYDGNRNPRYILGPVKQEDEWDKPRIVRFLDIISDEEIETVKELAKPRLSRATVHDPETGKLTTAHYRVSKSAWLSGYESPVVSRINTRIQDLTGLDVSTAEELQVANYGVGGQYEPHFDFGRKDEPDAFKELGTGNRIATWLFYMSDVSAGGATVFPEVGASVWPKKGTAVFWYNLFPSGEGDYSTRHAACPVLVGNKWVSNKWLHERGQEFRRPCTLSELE
T2 sequence (P09102 23-515 partner): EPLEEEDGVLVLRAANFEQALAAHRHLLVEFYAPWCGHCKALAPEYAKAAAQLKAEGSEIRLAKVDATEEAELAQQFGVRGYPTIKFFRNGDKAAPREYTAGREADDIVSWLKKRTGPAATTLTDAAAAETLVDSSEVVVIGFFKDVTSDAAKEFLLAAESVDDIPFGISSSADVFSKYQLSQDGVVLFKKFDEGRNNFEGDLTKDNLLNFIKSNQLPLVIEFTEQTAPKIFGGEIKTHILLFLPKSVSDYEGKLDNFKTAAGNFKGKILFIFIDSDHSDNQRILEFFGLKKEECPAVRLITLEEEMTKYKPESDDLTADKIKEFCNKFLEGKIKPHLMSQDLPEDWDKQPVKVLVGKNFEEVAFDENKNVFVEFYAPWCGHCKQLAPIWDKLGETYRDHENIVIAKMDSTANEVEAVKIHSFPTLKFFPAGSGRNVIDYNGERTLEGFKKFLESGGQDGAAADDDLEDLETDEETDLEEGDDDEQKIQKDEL
Method: Determining prolyl hydroxylase inhibition by the method of Majamaa Eur. J. Biochem. 138 (1984) 239-245 using the version of Kaule and guenzler Analytical Biochemistry 184 (1990) 291-297.
0.03 μg of prolyl 4-hydroxylase, which was prepared, by the method of Kedersa, Collagen Relat. Res. 1 (1981) 345-353, from homogenized 14-day-old chick embryos by ammonium sulfate precipitation and affinity chromatography on poly-L-proline-coupled Sepharose 4B and subsequent DEAE cellulose chromatography, was incubated, at 37° C. for one hour, in 0.05 ml of an 0.04 M tris-HCl solution (pH=7.5) containing 0.05 mM FeSO4, 0.1 mM 2-oxo-[5-C-14]glutarate (100,000 dpm), 20 μg (0.4 mg/ml) of (Pro-Pro-Gly)10 (Protein Research Foundation, Minoh, Osaka, Japan), 1 mM ascorbic acid, 0.4 mg of catalase/ml, 0.5 mM dithiothreitol and 2 mg of bovine serum albumin/ml, as well as the concentration of the inhibitor to be measured (the comparison experiment was carried out without any inhibitor). After that, 25 μl of a 20 mM succinate and 2-oxaglutarate solution, and also 25 μl of a 0.16 M 2,4-DNPH solution containing 30% HClO4, were added. After the mixture had been incubated at room temperature for a further 30 minutes, it was centrifuged at 3000 g for 5 minutes. The radioactivity of 100 μl of the supernatant was determined by liquid scintillation. Production of the [1-C-14] succinate was given in dpm. Unless otherwise indicated, all the chemicals and reagents were obtained from Sigma, Sigma D-82024 Taufkirchen.
The compounds tested in Table 3 were used at concentrations of from 0.1 μM to 1 mM. Where it was possible, the IC50 value was determined by graphic extrapolarization of the individual results. This value denotes the concentration of active inhibitors that led to 50% inhibition of the enzyme.

| Structure (SMILES) | IC50 [1] [nM] | Prolyl hydroxylase IC50 [2] | further results |
| --- | --- | --- | --- |
| Cc1cc(CNC(=O)c2cc(C(=O)NCc3ccc(OCC(=O)OC(C)(C)C)cc3)ncn2)ccc1F [Example 1, tert-Butyl [4-({[6-(4-fluoro-3-methylbenzylcarbamoyl)pyrimidine-4-carbonyl]amino}methyl)phenoxy]acetate] | 12 | – | – |
| Cc1cc(CNC(=O)c2cc(C(=O)NCc3ccc(OCC(=O)O)cc3)ncn2)ccc1F [Example 2, [4-({[6-(4-Fluoro-3-methylbenzylcarbamoyl)pyrimidine-4-carbonyl]-amino}methyl)phenoxy]acetic acid] | 7 | – | – |
| COc1cccc(CNC(=O)c2cc(C(=O)NCc3ccc(C)s3)ncn2)c1 [Example 4] | 24 | – | – |
| Cc1cc(CNC(=O)c2cc(C(=O)NCc3cccs3)ncn2)ccc1F [Example 7] | – | No inhibition | – |
| COc1cc(CNC(=O)c2cc(C(=O)NCc3ccc(F)c(Br)c3)ncn2)ccn1 [Example 11] | 30 | – | – |
| O=C(NCc1ccncc1)c1cc(C(=O)NCc2ccc(F)c(Cl)c2)ncn1 [Example 14] | – | No inhibition | – |
| COc1cc(CNC(=O)c2cc(C(=O)NCc3ccc(F)c(Cl)c3)ncn2)ccn1 [Example 20] | 50 | – | – |
| COc1cccc(CNC(=O)c2cc(C(=O)NCc3ccncc3)ncn2)c1 [Example 22] | – | No inhibition | – |
| O=C(NCCc1cccs1)c1cc(C(=O)NCc2ccc(F)c(Cl)c2)ncn1 [Example 28] | 100 | – | – |
| Cc1cc(CNC(=O)c2cc(C(=O)NCc3sccc3C)ncn2)ccc1F [Example 35] | 200 | – | – |
| COc1cccc(CNC(=O)c2cc(C(=O)NCc3nccs3)ncn2)c1 [Example 44] | 500 | – | – |
| COc1cccc(CNC(=O)c2cc(C(=O)NCc3cccc(OCCN(C)C)c3)ncn2)c1 [Example 69] | – | No inhibition | – |
| O=C(O)c1cc(C(=O)O)ncn1 [Pyrimidine-4,6-dicarboxylic acid, reference compound] | – | – | IC50 [2]: 1200 nM |

Further lines, with some results ahead:

| IC50 [1] [nM] | Prolyl hydroxylase IC50 [2] | Structure (SMILES) | further results |
| --- | --- | --- | --- |
| – | No inhibition | COc1cccc(CNC(=O)c2cc(C(=O)NCc3ccc(OCCN(C)C)cc3)ncn2)c1 [Example 70] | – |
| – | No inhibition | COc1cccc(CNC(=O)c2cc(C(=O)NCc3ccc(OCCCN(C)C)cc3)ncn2)c1 [Example 71] | – |
| – | No inhibition | O=C(NCc1ccc(OCCN2CCOCC2)cc1)c1cc(C(=O)NCc2ccc(F)c(Cl)c2)ncn1 [Example 72] | – |
| – | No inhibition | O=C(NCc1ccc(F)c(Cl)c1)c1cc(C(=O)NCc2cccs2)ncn1 [Example 83] | – |
| – | No inhibition | Cc1ccc(CNC(=O)c2cc(C(=O)NCc3ccc(F)c(C)c3)ncn2)o1 [Example 84] | – |
